The values below come from ChEMBL document CHEMBL1201862, “PubChem BioAssay data set” (2004).

Each structure is given as a SMILES string.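 These data come from cells grown in 96-well plates and exposed to compound for 48 hours at five concentrations. GI50 = concentration required for 50% inhibition of growth.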 The source made the active and inactive calls. Rule as the data show it: active = GI50 up to about 1.1 µM and inactive = higher.

Holding throughout (test): NCI anticancer screen, dose series, 48 h
Assay [1] deals with HOP-92.
Assay [2] has as its system EKVX.
Assay [3] deals with MDA-N.
In assay [4] the test system is COLO 205.
Assay [5] has as its system Malme-3M.
Assay [6] has as its system OVCAR-3.
For assay [7], the system named is CAKI-1.
The subject of assay [8] is RXF 393.
The subject of assay [9] is HCT-15.
Assay [10] has as its system OVCAR-5.
Assay [11] relates to 786-0.
Assay [12] concerns SK-OV-3.
In assay [13] the test system is OVCAR-4.
The subject of assay [14] is NCI-H460.
For assay [15], the system named is MOLT-4.
Assay [16] concerns KM12.
Assay [17] has as its system CCRF-CEM.
Assay [18] deals with NCI-H226.
The test system of assay [19] is HL-60.
Assay [20] relates to SF-539.

Consider `Cc1cc(-c2ccc(C(=O)O)[nH]2)on1`, for which the GI50 in [1] is 66.7 µM (inactive); in assay [2], 42.1 µM (inactive); in assay [3] it was 4.91 µM (inactive); in [4], 22.3 µM (inactive); in assay [5], 38.2 µM (inactive); in assay [6], 32.4 µM (inactive). For the same compound, the GI50 in [7] is 79.1 µM (inactive); in assay [8], 74.8 µM (inactive); in assay [9], 20.2 µM; in assay [10], 74.1 µM (inactive); in [11], 51.4 µM (inactive); in assay [12] it was 32.6 µM (inactive). For the same compound, the GI50 in assay [13] is > 100 µM (inactive); in assay [14], 40.6 µM (inactive); in [15] it was > 100 µM (inactive); in assay [16], > 100 µM (inactive).

For `C=CCNc1ccc(C)cc1`, the GI50 in [1], in assay [3], in assay [17], in [4], in [6] and in assay [8] was > 100 µM (inactive) each time. The GI50 in assay [9] was over 100 µM; in [18], > 100 µM (inactive); in [13] it was > 100 µM (inactive); in assay [14] it was > 100 µM (inactive); in [15], > 100 µM (inactive); in [16], > 100 µM (inactive).

Regarding `CC1=C2C(O)C(C(C)CO)C(O)CC2(C)C(O)CC1` (stereo unspecified), the GI50 in assay [1], in [19], in assay [2], in [17], in assay [4] and in assay [20] was > 100 µM (inactive) each time. For the same compound, the GI50 in assay [5] is > 100 µM (inactive); in assay [6], > 100 µM (inactive); in assay [7] it was > 100 µM (inactive); in assay [8], > 100 µM (inactive); in [9], over 100 µM; in assay [18] it was > 100 µM (inactive). In addition, the GI50 in assay [10], in assay [11], in [12], in [13], in assay [14] and in assay [15] was > 100 µM (inactive) each time. In addition, the GI50 in assay [16] was > 100 µM (inactive).

For `CCOC(=O)/C(=C/c1ccccn1)C(=O)c1ccccc1`, the GI50 was 7.66 µM (inactive) in assay [1]; 2.19 µM (inactive) in assay [19]; 19.1 µM (inactive) in assay [2]; 2.81 µM (inactive) in [17]; 14.2 µM (inactive) in assay [4]; 16.7 µM (inactive) in assay [20]. In addition, the GI50 in [5] is 13.5 µM (inactive); in assay [6], 14.1 µM (inactive); in assay [7], 14.5 µM (inactive); in [8] it was 11.2 µM (inactive); in [9], 13.2 µM; in assay [18], 15.9 µM (inactive). Also, the GI50 in assay [10] was 19.1 µM (inactive); in assay [11] it was 12.8 µM (inactive); in [12] it was 17.9 µM (inactive); in assay [13], 16.1 µM (inactive); in [14], 23 µM (inactive); in [15], 8.34 µM (inactive). Further, the GI50 in assay [16] was 11.9 µM (inactive).

Turning to `Cc1ccc(C(=O)CC(Cl)=C(Cl)Cl)cc1`, the GI50 in assay [1] is > 100 µM (inactive); in assay [19] it was 54 µM (inactive); in assay [17] it was 25.8 µM (inactive); in assay [4], > 100 µM (inactive); in assay [20] it was > 100 µM (inactive); in assay [5] it was > 100 µM (inactive). Besides, the GI50 in assay [6] is 45.6 µM (inactive); in assay [7] it was 38.8 µM (inactive); in assay [8] it was 78.5 µM (inactive); in assay [9], 67.1 µM; in assay [18] it was 85.5 µM (inactive); in assay [10], > 100 µM (inactive). Also, the GI50 in assay [11] is 63.1 µM (inactive); in assay [12] it was > 100 µM (inactive); in assay [13], 63.2 µM (inactive); in [14] it was > 100 µM (inactive); in assay [15] it was 20.5 µM (inactive); in [16], > 100 µM (inactive).

Take `CCOC(=O)C1(C(=O)OCC)COS(=O)OC1`: the GI50 in assay [1] is 12.6 µM (inactive); in assay [3], 35.5 µM (inactive); in [17], 10.6 µM (inactive); in assay [4], 23.8 µM (inactive); in assay [6], 19.9 µM (inactive); in [8], 18.3 µM (inactive). The GI50 in assay [9] was 19.2 µM; in assay [18] it was 20.8 µM (inactive); in [12] it was > 100 µM (inactive); in [13], 20.7 µM (inactive); in assay [14] it was 21.3 µM (inactive); in [15], 16.4 µM (inactive). For the same compound, the GI50 in [16] is 28.7 µM (inactive).

`CC1=NOC(C)(O)/C1=N/O` (stereo unspecified): the GI50 in assay [1], in assay [19], in assay [2], in assay [17], in [4] and in assay [20] was > 100 µM (inactive) each time. Moreover, the GI50 in [5] was > 100 µM (inactive); in assay [6] it was > 100 µM (inactive); in assay [7] it was > 100 µM (inactive); in assay [8], > 100 µM (inactive); in assay [9], over 100 µM; in assay [18], > 100 µM (inactive). Besides, the GI50 in assay [10], in assay [11], in [12], in assay [13], in assay [14] and in assay [15] was > 100 µM (inactive) throughout. Further, in [16], the GI50 was > 100 µM (inactive).

Turning to `NC(CO)c1ccccc1` (stereo unspecified), the GI50 was > 100 µM (inactive) in assay [1]; > 100 µM (inactive) in assay [19]; > 100 µM (inactive) in assay [2]; 8.71 µM (inactive) in assay [17]; > 100 µM (inactive) in [20]; > 100 µM (inactive) in [5]. Also, the GI50 in assay [6] is > 100 µM (inactive); in assay [7], > 100 µM (inactive); in assay [8] it was > 100 µM (inactive); in assay [9], over 100 µM; in assay [18], > 100 µM (inactive); in assay [10] it was > 100 µM (inactive). Besides, the GI50 in [12], in [13], in [14], in assay [15] and in assay [16] was > 100 µM (inactive) in each case.

Take `COc1cccc2c1C(=O)c1c(O)c3c(c(O)c1C2=O)C[C@@](O)(C(=O)CO)CC3OC1CC(NCCCCC(OC(C)=O)OC(C)=O)C(O)C(C)O1` (stereo partly specified): the GI50 is 0.0032 µM (active) in [1]; 0.00202 µM (active) in [19]; 0.00227 µM (active) in assay [17]; 0.00212 µM (active) in assay [20]; 0.0048 µM (active) in [5]; 0.00349 µM (active) in assay [6]. Moreover, the GI50 in assay [7] is 0.00251 µM (active); in [8], 0.00193 µM (active); in assay [9], 0.00246 µM; in assay [18], 0.00227 µM (active); in [10] it was 0.0047 µM (active); in [11], 0.00298 µM (active). For the same compound, the GI50 in [12] is 0.003 µM (active); in assay [13] it was 0.00157 µM (active); in assay [14], 0.00115 µM (active); in assay [15], 0.00235 µM (active); in assay [16], 0.0024 µM (active).

For `O=NN(CCCl)C(=O)NC1CCC(CC2CCC(NC(=O)N(CCCl)N=O)CC2)CC1` (stereo unspecified), the GI50 is 26.2 µM (inactive) in assay [1]; 16.4 µM (inactive) in assay [19]; > 63.4 µM (inactive) in assay [2]; 1.05 µM (active) in assay [17]; > 48.1 µM (inactive) in assay [4]; 0.817 µM (active) in [20]. Besides, the GI50 in [5] was 32.3 µM (inactive); in assay [6], 27.8 µM (inactive); in assay [7], 31.3 µM (inactive); in assay [8], 1.66 µM (inactive); in [9], 39.9 µM; in assay [18], 79.3 µM (inactive). Further, the GI50 is > 100 µM (inactive) in [10]; 13.2 µM (inactive) in [11]; 2.23 µM (inactive) in assay [12]; 28.8 µM (inactive) in assay [13]; 1.74 µM (inactive) in assay [14]; 1.21 µM (inactive) in assay [15]. In addition, in assay [16], the GI50 is > 73.3 µM (inactive).

As to `CC(C)c1ccc(O)c(=O)cc1` [GAMMA-THUJAPLICIN], the GI50 was 5.62 µM (inactive) in assay [1]; 2.02 µM (inactive) in assay [19]; 10.1 µM (inactive) in assay [2]; 1.86 µM (inactive) in assay [17]; 3.74 µM (inactive) in [4]; 2.38 µM (inactive) in assay [20]. The GI50 in assay [5] is 15.3 µM (inactive); in assay [6], 2.48 µM (inactive); in [7], 11.1 µM (inactive); in [8] it was 22.2 µM (inactive); in [9] it was 4.59 µM; in [18], 3.99 µM (inactive). The GI50 in assay [10] was 14.3 µM (inactive); in assay [11], 5.87 µM (inactive); in [12], 42.8 µM (inactive); in [13], 7.11 µM (inactive); in assay [14], 5.28 µM (inactive); in [15], 2.79 µM (inactive). For the same compound, the GI50 in assay [16] was 6.32 µM (inactive).

As to `O=C1CCCn2c3ccccc3c3ccnc1c32`, the GI50 was > 62.8 µM (inactive) in [1]; 6.89 µM (inactive) in assay [19]; 12.2 µM (inactive) in assay [2]; 27.8 µM (inactive) in assay [17]; 41.8 µM (inactive) in assay [4]; 30.8 µM (inactive) in [20]. The GI50 in assay [5] was 35.1 µM (inactive); in assay [6], 37.7 µM (inactive); in assay [7] it was 17.3 µM (inactive); in assay [8], 24.8 µM (inactive); in [9], 41.7 µM; in assay [18], 19.4 µM (inactive). The GI50 in assay [10] is 35.2 µM (inactive); in assay [12], 44.7 µM (inactive); in assay [13] it was 49 µM (inactive); in [14] it was 34 µM (inactive); in assay [15], 30.8 µM (inactive); in assay [16], 62.1 µM (inactive).
